# Experimental data as given in patent US20140171431A1, “AZOLE HETEROCYCLIC COMPOUND, PREPARATION METHOD, PHARMACEUTICAL COMPOSITION AND USE” (priority 2011, published 2014).
# Like-named read-outs stand apart in the source and are kept apart here.
# Legend:
# [1] = target: T1, Lp-PLA2 in rabbit serum (Oryctolagus cuniculus, UniProt G1SE06); assay: In vitro inhibitory activity towards the enzyme Lp-PLA2 in rabbit serum, [3H]PAF substrate; type: biochemical; conditions: 100 nM
# T1 construct: from tissue; host or cells: rabbit serum
# T1 sequence (G1SE06 22-423): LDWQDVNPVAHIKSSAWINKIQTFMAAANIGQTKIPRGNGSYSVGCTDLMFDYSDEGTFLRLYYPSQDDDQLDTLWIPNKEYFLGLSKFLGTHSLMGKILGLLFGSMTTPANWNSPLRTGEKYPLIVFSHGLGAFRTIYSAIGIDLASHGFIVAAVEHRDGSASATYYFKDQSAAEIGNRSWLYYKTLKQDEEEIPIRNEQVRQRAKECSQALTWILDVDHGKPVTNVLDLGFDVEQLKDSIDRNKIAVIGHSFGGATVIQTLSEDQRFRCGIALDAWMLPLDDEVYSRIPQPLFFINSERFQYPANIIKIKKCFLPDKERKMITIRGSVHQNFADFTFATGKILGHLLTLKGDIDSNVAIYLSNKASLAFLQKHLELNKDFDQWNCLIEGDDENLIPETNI
# [2] = target: T2, Lp-PLA2 in human serum (Homo sapiens, UniProt Q13093); assay: In vitro inhibitory activity towards the enzyme Lp-PLA2 in human serum, [3H]PAF substrate; type: biochemical; conditions: for inhibition at 0.01 µM: 10 nM; for inhibition at 0.1 µM: 100 nM
# T2 construct: from tissue
# T2 sequence (Q13093 22-441): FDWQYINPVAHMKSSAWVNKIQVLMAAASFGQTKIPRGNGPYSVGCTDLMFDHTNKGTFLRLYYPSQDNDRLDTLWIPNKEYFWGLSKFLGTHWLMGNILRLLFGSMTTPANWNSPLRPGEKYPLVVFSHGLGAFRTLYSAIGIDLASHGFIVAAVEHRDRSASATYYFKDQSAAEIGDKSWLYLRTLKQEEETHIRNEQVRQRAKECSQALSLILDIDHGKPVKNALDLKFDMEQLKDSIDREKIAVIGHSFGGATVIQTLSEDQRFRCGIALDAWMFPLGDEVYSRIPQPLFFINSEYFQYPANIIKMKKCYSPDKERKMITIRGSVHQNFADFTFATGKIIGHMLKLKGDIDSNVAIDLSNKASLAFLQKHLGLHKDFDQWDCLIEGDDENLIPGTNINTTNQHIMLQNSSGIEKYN
# How it was run: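 Human plasma was preincubated with compound 10 min at 37 °C in 50 mM HEPES, 150 mM NaCl, pH 7.4. Reaction started with 20 nM [3H]PAF, run 10 min at 37 °C, then extracted with CHCl3/MeOH (2:1); radioactivity of the supernatant was counted.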
# [3] = rabbit serum, read-out: inhibition, %
# [4] = human serum, read-out: inhibition, %
# [5] = read-out: inhibitory rate towards the rabbit serum derived Lp-PLA2 enzyme
# [6] = read-out: inhibitory rate towards the human serum derived Lp-PLA2 enzyme
"inhibition at 0.1 µM [1, 3] [%]","inhibition at 0.01 µM [2, 4] [%]",inhibition at 0.1 µM ([2]; human serum) [%],"inhibition at 0.1 µM [1, 5] [%]","inhibition at 0.01 µM [2, 6] [%]",SMILES
64,56,91,,,"CNC(=S)NCc1nnc(Cn2c(SCc3ccc(F)cc3)nc(=O)c3c2CCC3)n1Cc1ccc(-c2ccc(C(F)(F)F)cc2)cc1 [Example 113, 1-((5-((2-(4-fluorobenzylthio)-4-oxo-4,5,6,7-tetrahydro-1H-cyclopenta[d]pyrimidin-1-yl)methyl)-4-((4′-(trifluoromethyl)biphenyl-4-yl)methyl)-4H-1,2,4-triazol-3-yl)methyl)-3-methylthiourea]"
98,98,,> 90,> 80,"CN(C)CCN(C)Cc1onc(Cn2c(SCc3ccc(F)cc3)nc(=O)c3c2CCC3)c1Cc1ccc(-c2ccc(C(F)(F)F)cc2)cc1 [Example 158, 1-((5-(((2-(dimethylamino)ethyl)(methyl)amino)methyl)-4-((4′-(trifluoromethyl)biphenyl-4-yl)methyl)isoxazol-3-yl)methyl)-2-(4-fluorobenzylthio)-6,7-dihydro-1H-cyclopenta[d]pyrimidin-4(5H)-one]"
89,96,,,,"CCN(CC)Cc1onc(Cn2c(SCc3ccc(F)cc3)nc(=O)c3c2CCC3)c1Cc1ccc(-c2ccc(C(F)(F)F)cc2)cc1 [Example 157, 1-((5-((diethylamino)methyl)-4-((4′-(trifluoromethyl)biphenyl-4-yl)methyl)isoxazol-3-yl)methyl)-2-(4-fluorobenzylthio)-6,7-dihydro-1H-cyclopenta[d]pyrimidin-4(5H)-one]"
78.6,67,92,,,"O=c1nc(SCc2ccc(F)cc2)n(Cc2ncc(CN3CCCC3)n2Cc2ccc(-c3ccc(C(F)(F)F)cc3)cc2)c2c1CCC2 [Example 43, 2-(4-fluorobenzylthio)-1-((5-(pyrrolidin-1-ylmethyl)-1-((4′-(trifluoromethyl)biphenyl-4-yl)methyl)-1H-imidazol-2-yl)methyl)-6,7-dihydro-1H-cyclopenta[d]pyrimidin-4(5H)-one]"
83,66,,,,"CCN(CC)CCN(CC(=O)O)Cc1nnc(Cn2c(SCc3ccc(F)cc3)nc(=O)c3c2CCC3)n1Cc1ccc(-c2ccc(C(F)(F)F)cc2)cc1 [Example 135, 2-((2-(diethylamino)ethyl)((3-((2-(4-fluorobenzylthio)-4-oxo-4,5,6,7-tetrahydro-1H-cyclopenta[d]pyrimidin-1-yl)methyl)-4-((4′-(trifluoromethyl)biphenyl-4-yl)methyl)-4H-1,2,4-triazol-5-yl)methyl)amino)acetic acid]"
90,89,98,> 90,> 80,"CC(O)c1nnc(Cn2c(SCc3ccc(F)cc3)nc(=O)c3c2CCC3)n1Cc1ccc(-c2ccc(C(F)(F)F)cc2)cc1 (centres unmarked) [Example 120, 2-(4-fluorobenzylthio)-1-((5-(1-hydroxyethyl)-4-((4′-(trifluoromethyl)biphenyl-4-yl)methyl)-4H-1,2,4-triazol-3-yl)methyl)-6,7-dihydro-1H-cyclopenta[d]pyrimidin-4(5H)-one]"
94,90,,> 90,> 80,"CC(NCCN(C)C)c1nnc(Cn2c(SCc3ccc(F)cc3)nc(=O)c3c2CCC3)n1Cc1ccc(-c2ccc(C(F)(F)F)cc2)cc1 (centres unmarked) [Example 128, 1-((5-(1-(2-(dimethylamino)ethylamino)ethyl)-4-((4′-(trifluoromethyl)biphenyl-4-yl)methyl)-4H-1,2,4-triazol-3-yl)methyl)-2-(4-fluorobenzylthio)-6,7-dihydro-1H-cyclopenta[d]pyrimidin-4(5H)-one]"
88,76,,,,"O=c1nc(SCc2ccc(F)cc2)n(Cc2nnc(COCCO)n2Cc2ccc(-c3ccc(C(F)(F)F)cc3)cc2)c2c1CCC2 [Example 123, 2-(4-fluorobenzylthio)-1-((5-((2-hydroxyethoxy)methyl)-4-((4′-(trifluoromethyl)biphenyl-4-yl)methyl)-4H-1,2,4-triazol-3-yl)methyl)-6,7-dihydro-1H-cyclopenta[d]pyrimidin-4(5H)-one]"
67,53,86,,,"O=c1nc(SCc2ccc(F)cc2)n(Cc2nnc(CN3CCC(F)(F)C3)n2Cc2ccc(-c3ccc(C(F)(F)F)cc3)cc2)c2c1CCC2 [Example 104, 1-((5-((3,3-difluoropyrrolidin-1-yl)methyl)-4-((4′-(trifluoromethyl)biphenyl-4-yl)methyl)-4H-1,2,4-triazol-3-yl)methyl)-2-(4-fluorobenzylthio)-6,7-dihydro-1H-cyclopenta[d]pyrimidin-4(5H)-one]"
73,65,91,,,"O=c1nc(SCc2ccc(F)cc2)n(Cc2nnc(CO)n2Cc2ccc(-c3ccc(C(F)(F)F)cc3)cc2)c2c1CCC2 [Example 72, 2-(4-fluorobenzylthio)-1-((5-(hydroxymethyl)-4-((4′-(trifluoromethyl)biphenyl-4-yl)methyl)-4H-1,2,4-triazol-3-yl)methyl)-6,7-dihydro-1H-cyclopenta[d]pyrimidin-4(5H)-one]"
99,100,,> 90,> 80,"CN(CCN1CCCCC1)Cc1onc(Cn2c(SCc3ccc(F)cc3)nc(=O)c3c2CCC3)c1Cc1ccc(-c2ccc(C(F)(F)F)cc2)cc1 [Example 161, 2-(4-fluorobenzylthio)-1-((5-((methyl(2-(piperidin-1-yl)ethyl)amino)methyl)-4-((4′-(trifluoromethyl)biphenyl-4-yl)methyl)isoxazol-3-yl)methyl)-6,7-dihydro-1H-cyclopenta[d]pyrimidin-4(5H)-one]"
93,97,98,> 90,> 80,"C[N+](C)(C)Cc1nnc(Cn2c(SCc3ccc(F)cc3)nc(=O)c3c2CCC3)n1Cc1ccc(-c2ccc(C(F)(F)F)cc2)cc1 [Example 77, 1-(5-((2-(4-fluorobenzylthio)-4-oxo-4,5,6,7-tetrahydro-1H-cyclopenta[d]pyrimidin-1-yl)methyl)-4-((4′-(trifluoromethyl)biphenyl-4-yl)methyl)-4H-1,2,4-triazol-3-yl)-N,N,N-trimethylmethanaminium iodide]"
96,80,,> 90,> 80,"CCN1CCC[C@H]1CNCc1nnc(Cn2c(SCc3ccc(F)cc3)nc(=O)c3c2CCC3)n1Cc1ccc(-c2ccc(C(F)(F)F)cc2)cc1 [Example 106, (S)-1-((5-(((1-ethylpyrrolidin-2-yl)methylamino)methyl)-4-((4′-(trifluoromethyl)biphenyl-4-yl)methyl)-4H-1,2,4-triazol-3-yl)methyl)-2-(4-fluorobenzylthio)-6,7-dihydro-1H-cyclopenta[d]pyrimidin-4(5H)-one]"
88.3,85,97,,,"CN(C)Cc1nnc(Cn2c(SCc3ccc(F)cc3)nc(=O)c3c2CCC3)n1Cc1ccc(-c2ccc(C(F)(F)F)cc2)cc1 [Example 75, 1-((5-((dimethylamino)methyl)-4-((4′-(trifluoromethyl)biphenyl-4-yl)methyl)-4H-1,2,4-triazol-3-yl)methyl)-2-(4-fluorobenzylthio)-6,7-dihydro-1H-cyclopenta[d]pyrimidin-4(5H)-one]"
85,77,98,,,"CC(C)N(C)Cc1nnc(Cn2c(SCc3ccc(F)cc3)nc(=O)c3c2CCC3)n1Cc1ccc(-c2ccc(C(F)(F)F)cc2)cc1 [Example 82, 2-(4-fluorobenzylthio)-1-((5-((isopropyl(methyl)amino)methyl)-4-((4′-(trifluoromethyl)biphenyl-4-yl)methyl)-4H-1,2,4-triazol-3-yl)methyl)-6,7-dihydro-1H-cyclopenta[d]pyrimidin-4(5H)-one]"
76,69,91,,,"C[C@@H]1CN(Cc2nnc(Cn3c(SCc4ccc(F)cc4)nc(=O)c4c3CCC4)n2Cc2ccc(-c3ccc(C(F)(F)F)cc3)cc2)C[C@H](C)O1 [Example 84, 1-((5-(((2S,6R)-2,6-dimethylmorpholino)methyl)-4-((4′-(trifluoromethyl)biphenyl-4-yl)methyl)-4H-1,2,4-triazol-3-yl)methyl)-2-(4-fluorobenzylthio)-6,7-dihydro-1H-cyclopenta[d]pyrimidin-4(5H)-one]"
